# From ChEMBL document CHEMBL1944604, “Aminopurine based JNK inhibitors for the prevention of ischemia reperfusion injury” (Bioorg Med Chem Lett, 2012)
# How the values were obtained:
# [1] = Metabolic stability of the compound in rat liver microsomes assessed as compound remaining at 3 uM after 30 mins; format: ADME, Microsome; details: read-out: Stability
# [2] = Metabolic stability of the compound in mouse liver microsomes assessed as compound remaining at 3 uM after 30 mins; format: ADME, Microsome; details: read-out: Stability
# [3] = Metabolic stability of the compound in dog liver microsomes assessed as compound remaining at 3 uM after 30 mins; format: ADME, Canis lupus familiaris, Microsome; details: read-out: Stability
# [4] = Metabolic stability of the compound in monkey liver microsomes assessed as compound remaining at 3 uM after 30 mins; format: ADME, Macaca mulatta, Microsome; details: rhesus monkey, read-out: Stability
# [5] = Thermodynamic solubility of the compound at pH 5; format: physicochemical; details: buffer, read-out: Therm_solubility
# [6] = target: T1, Cytochrome P450 3A4 (Homo sapiens, UniProt P08684); assay: Inhibition of recombinant CYP3A4 up to 30 uM; format: ADME; details: recombinant enzyme
# T1 sequence (P08684 whole entry): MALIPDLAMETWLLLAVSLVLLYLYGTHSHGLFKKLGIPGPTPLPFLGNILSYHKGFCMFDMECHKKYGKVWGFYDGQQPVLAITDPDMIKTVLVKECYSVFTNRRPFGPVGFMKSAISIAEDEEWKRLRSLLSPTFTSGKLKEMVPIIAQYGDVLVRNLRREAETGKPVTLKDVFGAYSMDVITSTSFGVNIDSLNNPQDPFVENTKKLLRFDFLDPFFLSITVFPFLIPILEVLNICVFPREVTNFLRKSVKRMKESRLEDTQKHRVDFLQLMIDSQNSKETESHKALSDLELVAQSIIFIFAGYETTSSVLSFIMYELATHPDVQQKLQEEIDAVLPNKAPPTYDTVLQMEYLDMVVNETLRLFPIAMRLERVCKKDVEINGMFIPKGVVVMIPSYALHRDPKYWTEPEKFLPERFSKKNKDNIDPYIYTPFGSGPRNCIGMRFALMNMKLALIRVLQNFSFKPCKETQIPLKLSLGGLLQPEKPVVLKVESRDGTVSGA
# [7] = target: Mitogen-activated protein kinase 8 (Homo sapiens, UniProt P45983); assay: Inhibition of full length Hexa-His-tagged JNK1 using GST-tagged cJun and [gamma33P]ATP as substrate after 60 mins by scintillation counting
# Sequence of Mitogen-activated protein kinase 8 (P45983 whole entry): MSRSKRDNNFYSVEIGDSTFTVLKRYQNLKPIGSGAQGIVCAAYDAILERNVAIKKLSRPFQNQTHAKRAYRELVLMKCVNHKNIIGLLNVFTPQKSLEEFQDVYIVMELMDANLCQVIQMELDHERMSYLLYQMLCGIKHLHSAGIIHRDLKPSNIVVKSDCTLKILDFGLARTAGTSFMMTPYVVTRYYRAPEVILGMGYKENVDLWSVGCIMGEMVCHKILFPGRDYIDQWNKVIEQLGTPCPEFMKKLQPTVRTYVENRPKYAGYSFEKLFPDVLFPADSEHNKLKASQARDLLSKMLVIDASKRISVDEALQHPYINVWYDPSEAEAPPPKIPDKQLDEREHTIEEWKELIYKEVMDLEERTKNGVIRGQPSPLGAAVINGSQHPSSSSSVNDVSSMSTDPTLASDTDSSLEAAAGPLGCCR
# [8] = target: Mitogen-activated protein kinase 10 (Homo sapiens, UniProt P53779); assay: Inhibition of full length Hexa-His-tagged JNK3 using GST-tagged cJun and [gamma33P]ATP as substrate after 60 mins by scintillation counting
# Sequence of Mitogen-activated protein kinase 10 (P53779 whole entry): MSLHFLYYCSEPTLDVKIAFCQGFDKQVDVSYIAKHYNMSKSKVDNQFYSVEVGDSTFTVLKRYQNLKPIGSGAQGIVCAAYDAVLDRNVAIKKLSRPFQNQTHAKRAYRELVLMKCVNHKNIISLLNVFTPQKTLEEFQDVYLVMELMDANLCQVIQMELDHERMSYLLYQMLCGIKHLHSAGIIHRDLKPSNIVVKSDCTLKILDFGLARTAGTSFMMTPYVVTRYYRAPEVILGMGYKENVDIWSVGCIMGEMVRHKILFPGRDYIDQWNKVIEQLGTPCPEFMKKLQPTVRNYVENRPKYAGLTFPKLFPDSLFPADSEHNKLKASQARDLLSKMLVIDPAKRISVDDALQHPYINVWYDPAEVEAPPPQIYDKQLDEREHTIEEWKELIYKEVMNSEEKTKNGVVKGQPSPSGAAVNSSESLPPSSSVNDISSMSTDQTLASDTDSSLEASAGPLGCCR
# [9] = Clearance in rat at 2 to 10 mg/kg, iv; format: ADME, organism-based; design: dose 2-10 mg/kg, route intravenous; details: in vivo
# [10] = Volume of distribution at steady state in rat at 2 to 10 mg/kg, iv; format: ADME, organism-based; design: dose 2-10 mg/kg, route intravenous; details: in vivo, read-out: Vdss
# [11] = test system: Rattus norvegicus; assay: Antiinflammatory activity in po dosed CD rat whole blood assessed as inhibition of LPS-induced TNFalpha production administered 1 hr before LPS challenge measured by […]; format: functional, organism-based
# [12] = test system: Rattus norvegicus; assay: Antiischemic activity in Lewis rat ischemia reperfusion model assessed as increase in survival rate at 3 mg/kg, iv bolus administered 15 mins before ischemia challenge relative to control; format: functional
# [13] = Half life in rat at 2 to 10 mg/kg, iv bolus; format: ADME, organism-based; design: dose 2-10 mg/kg, route intravenous; details: in vivo
# [14] = AUC in rat at 10 mg/kg, iv infusion; format: ADME, organism-based; design: dose 10 mg/kg, route intravenous; details: plasma
# [15] = Half life in rat at 10 mg/kg, iv infusion; format: ADME, organism-based; design: dose 10 mg/kg, route intravenous; details: in vivo
# [16] = Clearance in dog at 1 mg/kg, iv bolus; format: ADME, organism-based, Canis lupus familiaris; design: dose 1 mg/kg, route intravenous; details: in vivo
# [17] = Volume of distribution at steady state in dog at 1 mg/kg, iv bolus; format: ADME, organism-based, Canis lupus familiaris; design: dose 1 mg/kg, route intravenous; details: in vivo, read-out: Vdss
# [18] = AUC in dog at 1 mg/kg, iv bolus; format: ADME, organism-based, Canis lupus familiaris; design: dose 1 mg/kg, route intravenous; details: plasma
# [19] = Half life in dog at 1 mg/kg, iv bolus; format: ADME, organism-based, Canis lupus familiaris; design: dose 1 mg/kg, route intravenous; details: in vivo
# [20] = Clearance in cynomolgus monkey at 1 mg/kg, iv bolus; format: ADME, organism-based, Macaca fascicularis; design: dose 1 mg/kg, route intravenous; details: in vivo
# [21] = Volume of distribution at steady state in cynomolgus monkey at 1 mg/kg, iv bolus; format: ADME, organism-based, Macaca fascicularis; design: dose 1 mg/kg, route intravenous; details: in vivo, read-out: Vdss
# [22] = Half life in cynomolgus monkey at 1 mg/kg, iv bolus; format: ADME, organism-based, Macaca fascicularis; design: dose 1 mg/kg, route intravenous; details: in vivo
# [23] = Mean residence time in cynomolgus monkey at 1 mg/kg, iv bolus; format: ADME, organism-based, Macaca fascicularis; design: dose 1 mg/kg, route intravenous; details: in vivo
# [24] = target: T2, Cytochrome P450 1A2 (Homo sapiens, UniProt P05177); assay: Inhibition of recombinant CYP1A2 up to 30 uM; format: ADME; details: recombinant enzyme
# T2 sequence (P05177 whole entry): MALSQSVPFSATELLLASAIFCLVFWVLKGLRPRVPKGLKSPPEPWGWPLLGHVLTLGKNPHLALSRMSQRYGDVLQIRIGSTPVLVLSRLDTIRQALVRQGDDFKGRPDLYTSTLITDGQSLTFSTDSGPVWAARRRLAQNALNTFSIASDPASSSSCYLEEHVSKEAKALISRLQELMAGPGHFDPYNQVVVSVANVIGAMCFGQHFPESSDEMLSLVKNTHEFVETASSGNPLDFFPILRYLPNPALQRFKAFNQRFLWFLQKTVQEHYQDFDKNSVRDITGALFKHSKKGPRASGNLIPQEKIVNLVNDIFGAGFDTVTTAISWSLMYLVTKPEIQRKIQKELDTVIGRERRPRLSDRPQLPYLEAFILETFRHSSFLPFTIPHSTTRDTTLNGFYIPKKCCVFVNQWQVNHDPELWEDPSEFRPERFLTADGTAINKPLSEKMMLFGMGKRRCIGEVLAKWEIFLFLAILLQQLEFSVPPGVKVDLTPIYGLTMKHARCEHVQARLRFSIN
# [25] = target: Cytochrome P450 2C19 (Homo sapiens, UniProt P33261); assay: Inhibition of recombinant CYP2C19 up to 30 uM; format: ADME; details: recombinant enzyme
# Sequence of Cytochrome P450 2C19 (P33261 whole entry): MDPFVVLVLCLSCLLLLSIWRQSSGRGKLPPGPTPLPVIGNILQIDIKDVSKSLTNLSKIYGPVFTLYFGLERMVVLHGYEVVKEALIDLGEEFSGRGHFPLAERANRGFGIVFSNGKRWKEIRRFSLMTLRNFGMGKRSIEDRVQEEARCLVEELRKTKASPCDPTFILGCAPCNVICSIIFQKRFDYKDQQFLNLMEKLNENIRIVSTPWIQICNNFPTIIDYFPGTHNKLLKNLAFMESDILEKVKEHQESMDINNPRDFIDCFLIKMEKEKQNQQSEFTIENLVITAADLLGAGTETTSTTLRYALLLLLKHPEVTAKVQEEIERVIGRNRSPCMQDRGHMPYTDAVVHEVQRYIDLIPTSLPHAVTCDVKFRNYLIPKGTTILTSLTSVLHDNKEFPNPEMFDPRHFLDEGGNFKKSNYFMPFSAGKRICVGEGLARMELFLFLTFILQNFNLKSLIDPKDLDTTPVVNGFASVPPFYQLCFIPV
# [26] = target: Cytochrome P450 2D6 (Homo sapiens, UniProt P10635); assay: Inhibition of recombinant CYP2D6 up to 30 uM; format: ADME; details: recombinant enzyme
# Sequence of Cytochrome P450 2D6 (P10635 whole entry): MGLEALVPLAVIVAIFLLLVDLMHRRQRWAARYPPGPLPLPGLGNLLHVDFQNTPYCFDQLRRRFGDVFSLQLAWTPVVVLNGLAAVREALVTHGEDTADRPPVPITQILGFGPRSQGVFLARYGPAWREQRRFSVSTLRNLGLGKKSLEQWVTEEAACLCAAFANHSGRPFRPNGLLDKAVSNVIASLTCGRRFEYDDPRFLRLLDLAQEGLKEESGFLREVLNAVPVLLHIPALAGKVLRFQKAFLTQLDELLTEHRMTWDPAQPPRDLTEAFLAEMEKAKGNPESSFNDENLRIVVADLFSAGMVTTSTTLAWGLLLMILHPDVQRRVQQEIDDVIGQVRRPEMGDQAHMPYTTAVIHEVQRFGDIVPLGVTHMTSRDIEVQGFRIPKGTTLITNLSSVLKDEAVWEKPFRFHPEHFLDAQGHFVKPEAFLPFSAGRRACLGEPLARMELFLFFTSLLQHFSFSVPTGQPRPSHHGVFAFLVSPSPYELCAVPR
# [27] = target: T1, Cytochrome P450 3A4; assay: Inhibition of CYP3A4 in human liver microsomes up to 30 uM; format: ADME, Microsome
# [28] = target: T3, CYP2B6 (Homo sapiens, UniProt P20813); assay: Drug metabolism assessed as CYP2B6-mediated compound loss after 30 mins; format: ADME; details: recombinant enzyme; read-out: Drug metabolism
# T3 sequence (P20813 whole entry): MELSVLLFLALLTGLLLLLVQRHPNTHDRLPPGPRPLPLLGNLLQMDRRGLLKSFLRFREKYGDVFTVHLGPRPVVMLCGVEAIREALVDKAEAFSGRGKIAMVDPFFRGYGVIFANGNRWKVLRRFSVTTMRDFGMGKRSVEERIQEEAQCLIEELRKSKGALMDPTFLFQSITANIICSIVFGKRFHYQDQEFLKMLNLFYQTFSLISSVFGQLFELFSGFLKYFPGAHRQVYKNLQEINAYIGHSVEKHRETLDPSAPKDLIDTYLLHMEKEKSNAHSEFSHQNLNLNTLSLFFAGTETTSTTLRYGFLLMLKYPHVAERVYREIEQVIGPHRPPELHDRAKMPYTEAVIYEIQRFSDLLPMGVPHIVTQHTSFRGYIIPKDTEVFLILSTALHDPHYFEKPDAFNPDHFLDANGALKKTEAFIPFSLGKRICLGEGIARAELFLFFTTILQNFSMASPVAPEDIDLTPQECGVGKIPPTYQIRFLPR
# [29] = target: CYP3A4 (Homo sapiens, UniProt P08684); assay: Drug metabolism assessed as CYP3A4-mediated compound loss after 30 mins; format: ADME; details: recombinant enzyme; read-out: Drug metabolism
# Sequence of CYP3A4 (P08684 whole entry): as the sequence (P08684 whole entry) above
# [30] = target: CYP2D6 (Homo sapiens, UniProt P10635); assay: Drug metabolism assessed as CYP2D6-mediated compound loss after 30 mins; format: ADME; details: recombinant enzyme; read-out: Drug metabolism
# Sequence of CYP2D6 (P10635 whole entry): as the sequence (P10635 whole entry) above
# [31] = test system: Hepatocyte; assay: Drug metabolism in rat hepatocytes after 60 mins; format: ADME, cell-based; details: 1 h
# [32] = test system: Hepatocyte; assay: Drug metabolism in mouse hepatocytes after 60 mins; format: ADME, cell-based; details: 1 h
# [33] = test system: Hepatocyte; assay: Drug metabolism in human hepatocytes after 60 mins; format: ADME, cell-based; details: 1 h
# [34] = test system: Plasma; assay: Drug metabolism in rat plasma at 2 mg/kg after 60 mins; format: ADME, organism-based; design: dose 2 mg/kg; details: in vivo, 1 h
# [35] = test system: Salmonella typhimurium; assay: Induction of mutagenesis in Salmonella Typhimurium by Ames test; format: toxicity, organism-based; details: salmonella enterica subsp. enterica serovar typhimurium
# [36] = target: hERG (KCNH2) (Homo sapiens, UniProt Q12809); assay: Inhibition of human ERG at 10 uM
# Sequence of hERG (KCNH2) (Q12809 whole entry, the tested form may be a part): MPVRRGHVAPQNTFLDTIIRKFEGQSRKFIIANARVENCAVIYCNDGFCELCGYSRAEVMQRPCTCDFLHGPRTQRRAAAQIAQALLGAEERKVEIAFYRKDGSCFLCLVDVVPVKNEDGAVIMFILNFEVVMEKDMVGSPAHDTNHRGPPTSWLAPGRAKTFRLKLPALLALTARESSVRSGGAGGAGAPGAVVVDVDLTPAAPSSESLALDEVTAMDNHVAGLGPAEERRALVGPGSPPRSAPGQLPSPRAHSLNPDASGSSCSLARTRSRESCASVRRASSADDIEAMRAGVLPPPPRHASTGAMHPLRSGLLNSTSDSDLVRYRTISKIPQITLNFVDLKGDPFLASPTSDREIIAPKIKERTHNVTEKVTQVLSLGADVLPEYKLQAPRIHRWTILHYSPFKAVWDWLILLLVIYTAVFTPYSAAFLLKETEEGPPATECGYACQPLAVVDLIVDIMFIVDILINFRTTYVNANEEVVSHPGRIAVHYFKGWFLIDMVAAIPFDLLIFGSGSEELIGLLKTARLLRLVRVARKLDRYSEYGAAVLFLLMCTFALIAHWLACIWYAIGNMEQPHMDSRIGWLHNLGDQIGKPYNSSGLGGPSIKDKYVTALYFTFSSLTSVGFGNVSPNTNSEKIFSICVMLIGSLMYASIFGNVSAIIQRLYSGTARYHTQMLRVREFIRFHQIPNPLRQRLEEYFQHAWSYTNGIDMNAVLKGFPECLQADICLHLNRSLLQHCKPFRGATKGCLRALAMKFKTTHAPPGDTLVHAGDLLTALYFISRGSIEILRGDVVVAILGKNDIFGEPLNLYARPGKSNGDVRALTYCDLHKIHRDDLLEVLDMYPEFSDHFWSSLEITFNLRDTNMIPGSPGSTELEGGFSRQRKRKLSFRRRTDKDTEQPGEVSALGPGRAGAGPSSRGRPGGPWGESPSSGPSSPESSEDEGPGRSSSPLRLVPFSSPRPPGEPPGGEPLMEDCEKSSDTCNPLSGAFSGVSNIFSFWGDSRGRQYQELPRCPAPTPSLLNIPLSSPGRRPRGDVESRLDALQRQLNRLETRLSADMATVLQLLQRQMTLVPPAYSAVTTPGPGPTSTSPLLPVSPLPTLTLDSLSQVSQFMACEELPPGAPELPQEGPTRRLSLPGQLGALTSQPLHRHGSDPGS
# [37] = test system: Rattus norvegicus; assay: Toxicity in rat non-anesthetized rat at 10 mg/kg, iv infusion administered 4 hrs for 4 consecutive days; format: organism-based; design: dose 10 mg/kg, route intravenous; details: in vivo
# [38] = test system: Rattus norvegicus; assay: Toxicity in rat non-anesthetized rat at 30 mg/kg, iv infusion administered 4 hrs for 4 consecutive days; format: organism-based; design: dose 30 mg/kg, route intravenous; details: in vivo
compound,measurement,setting,value
N[C@H]1CC[C@H](Nc2ncc3nc(Nc4ccc(F)cc4F)n(C4CCCC4)c3n2)CC1,"remaining at 0.5 h, 3 µM",[1],92%
same,"remaining at 0.5 h, 3 µM",[2],100%
same,"remaining at 0.5 h, 3 µM",[3],100%
same,"remaining at 0.5 h, 3 µM",[4],100%
same,solubility thermodynamic,[5],792 µg/mL
same,inhibition (INH),[6],Not Active
same,IC50,[7],270 nM
same,IC50,[8],24 nM
same,clearance,[9],66 mL/min/kg
same,Vd,[10],75 L/kg
same,IC50,[11],1500 nM
same,survival at 3 mg/kg,[12],60%
same,half-life,[13],17 h
same,AUC,[14],3.8 µM·h
same,half-life,[15],10 h
same,clearance,[16],28 mL/min/kg
same,Vd,[17],30 L/kg
same,AUC,[18],1.2 µM·h
same,half-life,[19],17 h
same,clearance,[20],5 mL/min/kg
same,Vd,[21],11 L/kg
same,half-life,[22],37 h
same,MRT,[23],40 h
same,inhibition (INH),[24],Not Active
same,inhibition (INH),[25],Not Active
same,inhibition (INH),[26],Not Active
same,inhibition (INH),[27],Not Active
same,metabolised at 0.5 h,[28],14%
same,metabolised at 0.5 h,[29],10%
same,metabolised at 0.5 h,[30],1.4%
same,Drug metabolism,[31],Not Active
same,Drug metabolism,[32],Not Active
same,Drug metabolism,[33],Not Active
same,Drug metabolism,[34],Not Active
same,Activity,[35],Non-toxic
same,inhibition at 10 µM,[36],59%
same,Activity,[37],Non-toxic
same,Activity,[38],Non-toxic
